Holding throughout (assay): biochemical
What all share (set-up): Cerep/Eurofins selectivity panel, enzymes, per cent inhibition at 10 uM

Assay [1] deals with T1, Protein Serine/Threonine Kinase, IKK-1 (Homo sapiens, UniProt O15111).
T1 construct: gene CHUK
The note with it: read-out: % Inhibition.

Assay [2] concerns the target T2, Nitric Oxide Synthase, inducible (iNOS) (Mus musculus, UniProt P29477).
T2 construct: gene Nos2
Conditions: read-out: % Inhibition.

Assay [3] deals with T3, Peptidase, Matrix metalloprotease-7 (MMP-7) (Homo sapiens, UniProt P09237).
T3 construct: gene MMP7
T3 sequence (P09237 whole entry): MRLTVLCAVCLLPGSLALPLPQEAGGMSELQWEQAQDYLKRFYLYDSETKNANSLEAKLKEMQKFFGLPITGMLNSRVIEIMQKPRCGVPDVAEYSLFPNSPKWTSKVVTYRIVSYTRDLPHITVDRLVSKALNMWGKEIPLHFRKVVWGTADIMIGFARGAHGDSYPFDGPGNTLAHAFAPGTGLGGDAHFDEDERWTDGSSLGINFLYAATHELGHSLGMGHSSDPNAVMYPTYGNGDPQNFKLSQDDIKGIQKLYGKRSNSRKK
Conditions: read-out: % Inhibition.

Assay [4] concerns the target T4, Protein Tyrosine Kinase, Insulin receptor (Homo sapiens, UniProt P06213).
T4 construct: gene INSR
Conditions: read-out: % Inhibition.

In assay [5] the target is Protein Serine/Threonine Kinase, MAPK8 (JNK1) (Homo sapiens, UniProt P45983). The note with it: read-out: % Inhibition.
Protein Serine/Threonine Kinase, MAPK8 (JNK1), sequence (P45983 whole entry): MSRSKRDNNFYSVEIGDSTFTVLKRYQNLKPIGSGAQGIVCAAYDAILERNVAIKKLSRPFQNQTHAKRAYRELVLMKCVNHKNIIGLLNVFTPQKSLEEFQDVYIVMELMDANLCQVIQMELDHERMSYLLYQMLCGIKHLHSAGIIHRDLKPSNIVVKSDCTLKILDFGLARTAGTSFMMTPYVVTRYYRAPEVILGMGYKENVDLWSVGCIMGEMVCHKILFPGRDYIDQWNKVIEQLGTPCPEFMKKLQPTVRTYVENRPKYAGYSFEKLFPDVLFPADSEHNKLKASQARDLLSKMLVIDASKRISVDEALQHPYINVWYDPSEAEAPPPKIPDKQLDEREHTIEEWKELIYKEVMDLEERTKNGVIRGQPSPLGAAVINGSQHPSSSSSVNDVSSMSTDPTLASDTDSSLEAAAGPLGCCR
For assay [6], the target named is T5, Peptidase, Matrix metalloprotease-1 (MMP-1) (Homo sapiens, UniProt P03956).
T5 construct: gene MMP1
T5 sequence (P03956 whole entry): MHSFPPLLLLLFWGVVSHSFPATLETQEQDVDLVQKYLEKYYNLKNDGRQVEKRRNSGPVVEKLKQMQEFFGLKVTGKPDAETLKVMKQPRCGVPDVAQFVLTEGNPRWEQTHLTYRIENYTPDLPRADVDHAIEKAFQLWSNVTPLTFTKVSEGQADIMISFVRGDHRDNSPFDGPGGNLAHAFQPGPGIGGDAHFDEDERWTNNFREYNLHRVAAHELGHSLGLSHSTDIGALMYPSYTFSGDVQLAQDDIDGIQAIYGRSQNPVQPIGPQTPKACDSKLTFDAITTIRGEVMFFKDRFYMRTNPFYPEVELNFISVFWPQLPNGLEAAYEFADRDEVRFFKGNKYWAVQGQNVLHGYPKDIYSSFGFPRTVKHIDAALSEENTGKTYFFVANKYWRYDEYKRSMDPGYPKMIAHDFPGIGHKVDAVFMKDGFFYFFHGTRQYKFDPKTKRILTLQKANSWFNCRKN
Conditions: read-out: % Inhibition.

The target of a further assay is T6, Monoamine Oxidase MAO-A (Homo sapiens, UniProt P21397).
T6 construct: gene MAOA
T6 sequence (P21397 whole entry): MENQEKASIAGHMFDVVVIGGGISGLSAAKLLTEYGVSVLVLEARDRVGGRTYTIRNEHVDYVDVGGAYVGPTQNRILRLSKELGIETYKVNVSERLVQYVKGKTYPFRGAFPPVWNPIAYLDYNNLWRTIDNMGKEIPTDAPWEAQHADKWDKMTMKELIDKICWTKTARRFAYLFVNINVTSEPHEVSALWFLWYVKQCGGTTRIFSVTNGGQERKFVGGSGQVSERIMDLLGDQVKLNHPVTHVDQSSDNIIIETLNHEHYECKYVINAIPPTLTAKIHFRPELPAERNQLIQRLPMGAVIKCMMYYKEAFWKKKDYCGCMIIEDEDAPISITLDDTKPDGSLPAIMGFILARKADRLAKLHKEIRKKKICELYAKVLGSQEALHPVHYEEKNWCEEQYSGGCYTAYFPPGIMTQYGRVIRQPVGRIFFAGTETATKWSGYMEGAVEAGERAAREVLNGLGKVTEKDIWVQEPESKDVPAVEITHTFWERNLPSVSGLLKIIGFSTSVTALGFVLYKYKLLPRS
Conditions: read-out: % Inhibition.

The target of another assay is T7, 5-Lipoxygenase (Homo sapiens, UniProt P09917).
T7 construct: gene ALOX5
Conditions: read-out: % Inhibition.

The target in assay [7] is Protein Tyrosine Kinase, SRC (Homo sapiens, UniProt P12931). The note with it: read-out: % Inhibition.
Protein Tyrosine Kinase, SRC, sequence (P12931 whole entry): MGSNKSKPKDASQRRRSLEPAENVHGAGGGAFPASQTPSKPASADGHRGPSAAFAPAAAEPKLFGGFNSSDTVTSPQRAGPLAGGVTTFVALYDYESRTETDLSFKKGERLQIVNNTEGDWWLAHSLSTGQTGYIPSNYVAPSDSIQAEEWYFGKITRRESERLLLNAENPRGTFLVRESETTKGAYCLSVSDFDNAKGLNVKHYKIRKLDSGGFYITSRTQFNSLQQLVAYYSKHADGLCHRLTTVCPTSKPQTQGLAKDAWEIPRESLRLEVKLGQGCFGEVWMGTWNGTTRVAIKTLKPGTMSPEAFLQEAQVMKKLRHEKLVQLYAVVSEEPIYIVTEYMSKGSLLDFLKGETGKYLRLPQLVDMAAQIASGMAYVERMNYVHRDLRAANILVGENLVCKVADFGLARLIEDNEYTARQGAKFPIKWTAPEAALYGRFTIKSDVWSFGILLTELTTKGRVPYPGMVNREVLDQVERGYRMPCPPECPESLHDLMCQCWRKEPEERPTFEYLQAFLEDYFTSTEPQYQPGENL
Assay [8] concerns the target T8, Peptidase, Matrix metalloprotease-13 (MMP-13) (Homo sapiens, UniProt P45452).
T8 construct: gene MMP13
Conditions: read-out: % Inhibition.

Assay [9] addresses Protein Tyrosine Kinase, FES (Homo sapiens, UniProt P07332). Conditions: read-out: % Inhibition.
Assay [10] has as its target T9, Protein Tyrosine Kinase, EGF receptor (Homo sapiens, UniProt P00533).
T9 construct: gene EGFR
The note with it: read-out: % Inhibition.

A further assay has as its target T10, Phosphodiesterase PDE5 (Homo sapiens, UniProt O76074).
T10 construct: gene PDE5A
The note with it: read-out: % Inhibition.

Another assay has as its target T11, Peptidase, Renin (Homo sapiens, UniProt P00797).
T11 construct: gene REN
Conditions: read-out: % Inhibition.

The target in another assay is T12, Monoamine Oxidase MAO-B (Homo sapiens, UniProt P27338).
T12 construct: gene MAOB
T12 sequence (P27338 whole entry): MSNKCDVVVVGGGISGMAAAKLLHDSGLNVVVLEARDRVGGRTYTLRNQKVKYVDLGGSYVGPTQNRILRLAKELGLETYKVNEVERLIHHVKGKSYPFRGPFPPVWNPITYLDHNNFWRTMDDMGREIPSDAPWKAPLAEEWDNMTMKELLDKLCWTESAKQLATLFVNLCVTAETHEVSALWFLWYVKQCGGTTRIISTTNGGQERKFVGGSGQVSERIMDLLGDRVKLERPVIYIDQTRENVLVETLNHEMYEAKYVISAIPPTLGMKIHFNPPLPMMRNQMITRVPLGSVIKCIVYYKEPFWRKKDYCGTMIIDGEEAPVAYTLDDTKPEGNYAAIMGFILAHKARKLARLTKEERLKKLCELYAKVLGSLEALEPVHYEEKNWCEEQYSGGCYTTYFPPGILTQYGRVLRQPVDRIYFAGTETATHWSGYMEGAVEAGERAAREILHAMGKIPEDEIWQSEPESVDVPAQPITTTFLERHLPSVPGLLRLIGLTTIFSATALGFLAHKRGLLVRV
The note with it: read-out: % Inhibition.

Assay [11] addresses Protein Serine/Threonine Kinase, GSK3B (Homo sapiens, UniProt P49841). The note with it: read-out: % Inhibition.
A further assay concerns the target T13, Carbonic Anhydrase II (Homo sapiens, UniProt P00918).
T13 construct: gene CA2
Conditions: read-out: % Inhibition.

Assay [12] addresses T14, Cholinesterase, Acetyl, ACES (Homo sapiens, UniProt P22303).
T14 construct: gene ACHE

One may read the inhibition as the relative decrease from the control value, in per cent.

T9 sequence (P00533 whole entry): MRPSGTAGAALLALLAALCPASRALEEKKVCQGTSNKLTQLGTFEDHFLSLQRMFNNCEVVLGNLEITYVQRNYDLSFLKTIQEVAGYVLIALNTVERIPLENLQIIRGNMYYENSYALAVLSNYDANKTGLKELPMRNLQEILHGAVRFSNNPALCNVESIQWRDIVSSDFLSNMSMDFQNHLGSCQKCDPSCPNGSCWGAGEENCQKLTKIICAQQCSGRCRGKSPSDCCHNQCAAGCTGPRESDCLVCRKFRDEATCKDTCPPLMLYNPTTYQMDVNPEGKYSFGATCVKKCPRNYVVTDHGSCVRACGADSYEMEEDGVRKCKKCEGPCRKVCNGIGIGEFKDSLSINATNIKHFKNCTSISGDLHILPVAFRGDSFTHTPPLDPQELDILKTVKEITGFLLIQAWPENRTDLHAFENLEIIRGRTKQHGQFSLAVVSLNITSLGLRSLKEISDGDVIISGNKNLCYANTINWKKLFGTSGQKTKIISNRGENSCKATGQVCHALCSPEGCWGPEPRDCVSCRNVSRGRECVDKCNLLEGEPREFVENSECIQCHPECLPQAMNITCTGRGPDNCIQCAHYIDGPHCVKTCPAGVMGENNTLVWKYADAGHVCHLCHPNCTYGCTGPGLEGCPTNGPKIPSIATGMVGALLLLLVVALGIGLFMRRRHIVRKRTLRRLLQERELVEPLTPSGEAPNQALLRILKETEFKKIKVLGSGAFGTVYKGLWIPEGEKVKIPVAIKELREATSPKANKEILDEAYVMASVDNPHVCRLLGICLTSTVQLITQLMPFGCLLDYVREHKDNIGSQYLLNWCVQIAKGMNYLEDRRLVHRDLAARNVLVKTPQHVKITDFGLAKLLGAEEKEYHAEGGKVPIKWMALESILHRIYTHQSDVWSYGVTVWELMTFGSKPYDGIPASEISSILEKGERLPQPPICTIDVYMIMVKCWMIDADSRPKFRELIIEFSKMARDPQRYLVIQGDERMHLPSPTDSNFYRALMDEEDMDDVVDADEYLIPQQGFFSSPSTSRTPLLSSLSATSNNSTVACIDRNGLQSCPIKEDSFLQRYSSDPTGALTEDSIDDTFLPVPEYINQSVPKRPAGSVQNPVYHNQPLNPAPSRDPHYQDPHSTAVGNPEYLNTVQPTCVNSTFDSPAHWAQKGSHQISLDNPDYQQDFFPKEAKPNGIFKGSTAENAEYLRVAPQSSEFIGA
T11 sequence (P00797 whole entry): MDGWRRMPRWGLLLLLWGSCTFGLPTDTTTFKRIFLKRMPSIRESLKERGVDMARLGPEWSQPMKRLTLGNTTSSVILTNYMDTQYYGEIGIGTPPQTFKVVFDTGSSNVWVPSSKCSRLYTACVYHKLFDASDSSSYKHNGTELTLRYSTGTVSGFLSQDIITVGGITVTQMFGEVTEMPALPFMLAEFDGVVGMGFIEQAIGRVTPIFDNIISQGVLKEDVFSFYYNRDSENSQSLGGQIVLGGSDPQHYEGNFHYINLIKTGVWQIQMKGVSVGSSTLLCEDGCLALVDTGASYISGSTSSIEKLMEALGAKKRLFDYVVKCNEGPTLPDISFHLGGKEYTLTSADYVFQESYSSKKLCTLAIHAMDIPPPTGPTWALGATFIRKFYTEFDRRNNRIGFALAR
T14 sequence (P22303 whole entry): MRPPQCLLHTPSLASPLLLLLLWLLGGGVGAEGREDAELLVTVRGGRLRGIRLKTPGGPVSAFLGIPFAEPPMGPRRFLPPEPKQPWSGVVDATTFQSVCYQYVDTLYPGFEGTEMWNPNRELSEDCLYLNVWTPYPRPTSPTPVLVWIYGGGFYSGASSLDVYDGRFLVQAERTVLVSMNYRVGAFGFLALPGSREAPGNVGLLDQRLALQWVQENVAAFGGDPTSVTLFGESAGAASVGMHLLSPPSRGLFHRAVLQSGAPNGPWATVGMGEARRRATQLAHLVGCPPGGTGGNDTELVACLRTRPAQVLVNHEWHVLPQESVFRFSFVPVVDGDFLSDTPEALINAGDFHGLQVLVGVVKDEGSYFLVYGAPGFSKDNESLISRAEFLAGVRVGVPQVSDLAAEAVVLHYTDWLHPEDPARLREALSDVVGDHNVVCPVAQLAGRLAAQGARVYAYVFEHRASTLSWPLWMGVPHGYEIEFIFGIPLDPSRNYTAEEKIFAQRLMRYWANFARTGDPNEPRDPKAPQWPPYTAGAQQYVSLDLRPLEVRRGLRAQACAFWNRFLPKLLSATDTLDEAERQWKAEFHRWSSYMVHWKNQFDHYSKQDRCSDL

In the case of `C[C@]1(Nc2cnc(C(F)(F)F)cn2)CCC[C@@H]1NC(=O)c1ncccc1-n1nccn1` [CVN45502], the inhibition at 10 µM in [1] is -14%; in [2], 5%; in assay [3] it was 6%; in assay [4], -14%; in assay [5], 6%; in assay [6], 18%. The inhibition at 10 µM at Monoamine Oxidase MAO-A is 11%; at 5-Lipoxygenase it was 14%; in [7] it was -7%; in [8], -4%; in [9] it was -13%; in assay [10], -22%. Moreover, the inhibition at 10 µM was 29% on Phosphodiesterase PDE5; 10% at Peptidase, Renin; 8% on Monoamine Oxidase MAO-B; 8% in [11]; -4% at Carbonic Anhydrase II; -8% in assay [12].

The record behind these values is article PMC9684079, “Pharmacological targeting of glutamatergic neurons within the brainstem for weight reduction” (Nature Metabolism, 2022).
